Test results from PubChem BioAssay (NCI).
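The compound was tested at five concentrations on cells cultured in 96-well plates, with a 48-hour exposure period. TGI is the concentration that stops growth completely.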

Assays:
Assay in all cases: inhibition of tumour cell growth, NCI panel, 48 h
OVCAR-3 ovarian = test system: OVCAR-3 ovarian
SW-620 colon = test system: SW-620 colon
K-562 leukemia = test system: K-562 leukemia
SF-268 CNS = test system: SF-268 CNS
MCF7 breast = test system: MCF7 breast
HL-60(TB) leukemia = test system: HL-60(TB) leukemia
BT-549 breast = test system: BT-549 breast
U251 CNS = test system: U251 CNS
SK-MEL-28 melanoma = test system: SK-MEL-28 melanoma
COLO 205 colon = test system: COLO 205 colon
NCI-H23 lung = test system: NCI-H23 lung
MOLT-4 leukemia = test system: MOLT-4 leukemia
UACC-257 melanoma = test system: UACC-257 melanoma
MDA-MB-435 = test system: MDA-MB-435
KM12 colon = test system: KM12 colon
ACHN renal = test system: ACHN renal
SR leukemia = test system: SR leukemia
SF-295 CNS = test system: SF-295 CNS
CAKI-1 renal = test system: CAKI-1 renal
HOP-62 NSCLC = test system: HOP-62 NSCLC
IGROV1 ovarian = test system: IGROV1 ovarian
MDA-MB-231 breast = test system: MDA-MB-231 breast
OVCAR-8 ovarian = test system: OVCAR-8 ovarian
SN12C renal = test system: SN12C renal
A549 NSCLC = test system: A549 NSCLC
OVCAR-5 ovarian = test system: OVCAR-5 ovarian
NCI-H522 lung = test system: NCI-H522 lung
RPMI-8226 leukemia = test system: RPMI-8226 leukemia
HS 578T breast = test system: HS 578T breast
LOX IMVI melanoma = test system: LOX IMVI melanoma
SNB-19 CNS = test system: SNB-19 CNS
MALME-3M melanoma = test system: MALME-3M melanoma
HCC-2998 colon = test system: HCC-2998 colon
SK-MEL-5 melanoma = test system: SK-MEL-5 melanoma
HCT-15 colon = test system: HCT-15 colon
NCI/ADR-RES ovarian = test system: NCI/ADR-RES ovarian
SK-OV-3 ovarian = test system: SK-OV-3 ovarian
PC-3 prostate = test system: PC-3 prostate
CCRF-CEM leukemia = test system: CCRF-CEM leukemia
MDA-N = test system: MDA-N
SK-MEL-2 melanoma = test system: SK-MEL-2 melanoma
UACC-62 melanoma = test system: UACC-62 melanoma
TK-10 renal = test system: TK-10 renal
DU-145 prostate = test system: DU-145 prostate
786-0 renal = test system: 786-0 renal
SF-539 CNS = test system: SF-539 CNS
M14 melanoma = test system: M14 melanoma
T-47D breast = test system: T-47D breast
UO-31 renal = test system: UO-31 renal
HCT-116 colon = test system: HCT-116 colon
SNB-75 CNS = test system: SNB-75 CNS
NCI-H226 lung = test system: NCI-H226 lung
NCI-H460 lung = test system: NCI-H460 lung
HT29 colon = test system: HT29 colon
HOP-92 NSCLC = test system: HOP-92 NSCLC
EKVX NSCLC = test system: EKVX NSCLC
A498 renal = test system: A498 renal
OVCAR-4 ovarian = test system: OVCAR-4 ovarian
RXF 393 renal = test system: RXF 393 renal

Which TGI (OVCAR-3 ovarian) does the source give for CC(=O)On1c(-c2ccccc2-c2nc3ccccc3n2OC(C)=O)nc2ccccc21 here?
Its TGI is over 100 µM.

What about the TGI (SW-620 colon) of the same compound?
The TGI was over 100 µM.

And the TGI (K-562 leukemia)?
Its TGI is over 100 µM.

And the TGI (SF-268 CNS)?
Its TGI is over 100 µM.

And the TGI (MCF7 breast)?
Its TGI is over 100 µM.

What about the TGI (HL-60(TB) leukemia) of the same compound?
The TGI was 72.8 µM.

What about the TGI (BT-549 breast) of the same compound?
Its TGI is over 100 µM.

And the TGI (U251 CNS)?
Its TGI is over 100 µM.

What about the TGI (SK-MEL-28 melanoma) of the same compound?
The TGI was over 100 µM.

And the TGI (COLO 205 colon)?
Its TGI is 46 µM.

And the TGI (NCI-H23 lung)?
The TGI was 76.6 µM.

What about the TGI (MOLT-4 leukemia) of the same compound?
Its TGI is 71.1 µM.

What about the TGI (UACC-257 melanoma) of the same compound?
The TGI was over 100 µM.

And the TGI (MDA-MB-435)?
The TGI was over 100 µM.

And the TGI (KM12 colon)?
The TGI was over 100 µM.

And the TGI (ACHN renal)?
Its TGI is over 100 µM.

What about the TGI (SR leukemia) of the same compound?
Its TGI is over 100 µM.

What about the TGI (SF-295 CNS) of the same compound?
Its TGI is over 100 µM.

What about the TGI (CAKI-1 renal) of the same compound?
The TGI was over 100 µM.

And the TGI (HOP-62 NSCLC)?
The TGI was over 100 µM.

What about the TGI (IGROV1 ovarian) of the same compound?
The TGI was over 100 µM.

And the TGI (MDA-MB-231 breast)?
The TGI was over 100 µM.

What about the TGI (OVCAR-8 ovarian) of the same compound?
The TGI was over 100 µM.

And the TGI (SN12C renal)?
Its TGI is over 100 µM.

What about the TGI (A549 NSCLC) of the same compound?
Its TGI is over 100 µM.

What about the TGI (OVCAR-5 ovarian) of the same compound?
The TGI was over 100 µM.

What about the TGI (NCI-H522 lung) of the same compound?
The TGI was 51.5 µM.

And the TGI (RPMI-8226 leukemia)?
The TGI was 71 µM.

And the TGI (HS 578T breast)?
The TGI was over 100 µM.

And the TGI (LOX IMVI melanoma)?
The TGI was over 100 µM.

And the TGI (SNB-19 CNS)?
Its TGI is over 100 µM.

What about the TGI (MALME-3M melanoma) of the same compound?
The TGI was over 100 µM.

And the TGI (HCC-2998 colon)?
Its TGI is over 100 µM.

And the TGI (SK-MEL-5 melanoma)?
Its TGI is 13.7 µM.

What about the TGI (HCT-15 colon) of the same compound?
Its TGI is over 100 µM.

What about the TGI (NCI/ADR-RES ovarian) of the same compound?
The TGI was over 100 µM.

What about the TGI (SK-OV-3 ovarian) of the same compound?
The TGI was over 100 µM.

What about the TGI (PC-3 prostate) of the same compound?
The TGI was 58.6 µM.

And the TGI (CCRF-CEM leukemia)?
The TGI was over 100 µM.

And the TGI (MDA-N)?
The TGI was over 100 µM.

What about the TGI (SK-MEL-2 melanoma) of the same compound?
Its TGI is 88.6 µM.

What about the TGI (UACC-62 melanoma) of the same compound?
The TGI was over 100 µM.

What about the TGI (TK-10 renal) of the same compound?
The TGI was over 100 µM.

And the TGI (DU-145 prostate)?
Its TGI is over 100 µM.

What about the TGI (786-0 renal) of the same compound?
Its TGI is over 100 µM.

What about the TGI (SF-539 CNS) of the same compound?
Its TGI is over 100 µM.

What about the TGI (M14 melanoma) of the same compound?
The TGI was over 100 µM.

And the TGI (T-47D breast)?
Its TGI is over 100 µM.

What about the TGI (UO-31 renal) of the same compound?
The TGI was over 100 µM.

What about the TGI (HCT-116 colon) of the same compound?
Its TGI is over 100 µM.

What about the TGI (SNB-75 CNS) of the same compound?
The TGI was over 100 µM.

What about the TGI (NCI-H226 lung) of the same compound?
Its TGI is over 100 µM.

Which results are given for Cc1ccc(S(=O)(=O)NNC(=O)c2cc(C)c(C)cc2N)cc1?
TGI (OVCAR-3 ovarian): > 100 µM; TGI (NCI-H460 lung): > 100 µM; TGI (SW-620 colon): > 100 µM; TGI (K-562 leukemia): > 100 µM; TGI (MCF7 breast): > 100 µM; TGI (HL-60(TB) leukemia): > 100 µM; TGI (BT-549 breast): > 100 µM; TGI (U251 CNS): > 100 µM; TGI (SK-MEL-28 melanoma): > 100 µM; TGI (COLO 205 colon): > 100 µM; TGI (NCI-H23 lung): > 100 µM; TGI (MOLT-4 leukemia): > 100 µM; TGI (HT29 colon): > 100 µM; TGI (UACC-257 melanoma): > 100 µM; TGI (MDA-MB-435): > 100 µM; TGI (KM12 colon): > 100 µM; TGI (ACHN renal): > 100 µM; TGI (SR leukemia): > 100 µM; TGI (SF-295 CNS): > 100 µM; TGI (HOP-92 NSCLC): > 100 µM; TGI (CAKI-1 renal): > 100 µM; TGI (HOP-62 NSCLC): > 100 µM; TGI (EKVX NSCLC): > 100 µM; TGI (IGROV1 ovarian): > 100 µM; TGI (A498 renal): > 100 µM; TGI (MDA-MB-231 breast): > 100 µM; TGI (OVCAR-8 ovarian): > 100 µM; TGI (SN12C renal): > 100 µM; TGI (OVCAR-5 ovarian): > 100 µM; TGI (NCI-H522 lung): > 100 µM; TGI (OVCAR-4 ovarian): > 100 µM; TGI (RPMI-8226 leukemia): > 100 µM; TGI (HS 578T breast): > 100 µM; TGI (LOX IMVI melanoma): > 100 µM; TGI (SNB-19 CNS): > 100 µM; TGI (MALME-3M melanoma): > 100 µM; TGI (HCC-2998 colon): > 100 µM; TGI (SK-MEL-5 melanoma): > 100 µM; TGI (HCT-15 colon): > 100 µM; TGI (NCI/ADR-RES ovarian): > 100 µM; TGI (SK-OV-3 ovarian): > 100 µM; TGI (PC-3 prostate): > 100 µM; TGI (CCRF-CEM leukemia): > 100 µM; TGI (MDA-N): > 100 µM; TGI (UACC-62 melanoma): > 100 µM; TGI (DU-145 prostate): > 100 µM; TGI (786-0 renal): > 100 µM; TGI (SF-539 CNS): > 100 µM; TGI (T-47D breast): > 100 µM; TGI (UO-31 renal): > 100 µM; TGI (HCT-116 colon): > 100 µM; TGI (SNB-75 CNS): > 100 µM; TGI (RXF 393 renal): > 100 µM; TGI (NCI-H226 lung): > 100 µM
